From patent US5464834A, “N-substituted N'-heterobicyclic piperazines having pharmaceutical activity” (Adir et Compagnie, priority 1992, dated 1995)
Like-named read-outs stand apart in the source and are kept apart here.

Key:
[1] = molecular target: T1, 5HT1A receptors (Rattus norvegicus, UniProt P19327); assay: In vitro binding test, 5HT1A receptors ([3H]-8-OH-DPAT, hippocampus membranes); parameters: The hippocampus of the brains of decapitated rats was immediately frozen; from tissue; host or cells: hippocampus membranes of male Wistar rats; species or system rat (male Wistar)
T1 sequence (P19327 1-422): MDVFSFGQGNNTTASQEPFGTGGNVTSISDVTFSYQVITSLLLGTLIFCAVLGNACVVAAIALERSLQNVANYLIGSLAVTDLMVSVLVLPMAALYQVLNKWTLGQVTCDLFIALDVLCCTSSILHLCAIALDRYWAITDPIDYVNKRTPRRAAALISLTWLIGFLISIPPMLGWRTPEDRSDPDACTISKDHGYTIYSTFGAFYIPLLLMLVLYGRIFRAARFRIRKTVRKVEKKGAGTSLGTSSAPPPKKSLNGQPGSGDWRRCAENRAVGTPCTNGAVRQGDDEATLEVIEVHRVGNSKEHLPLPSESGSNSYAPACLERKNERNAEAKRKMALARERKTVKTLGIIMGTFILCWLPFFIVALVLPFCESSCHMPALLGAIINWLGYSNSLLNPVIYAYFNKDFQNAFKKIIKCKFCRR
Experimental: (§1) The tests were carried out using male Wistar rats weighing 200 to 220 g having free access to their food and to their drinking water in standard cages.
The hippocampus of the brains of decapitated rats was immediately frozen on solid carbon dioxide and then kept at -80° C. until preparation of the membranes. The tissue was homogenised at 4° C. in the appropriate buffer using a Polytron (Brinkman Instruments, Lucerne, Switzerland) and centrifuged at 20,000 revs/min.
Incubation was carried out for 30 minutes at 25° C. Non-specific binding was established by […] of 5HT. The tests were terminated by rapid filtration using a Brandel harvester through glass fibre filters pretreated with 0.1% polyethylene imine.
The IC50 values were determined in accordance with process 8 of Tallarida R. J. and Murray R. B., Manual of Pharmacological calculations with computer programs, Springer Verlag, New York, (1987).
The pKi was calculated in accordance with the following formula: [formula] wherein [L] is the concentration of the hot ligand (^[3] H-8-OH-DPAT, 0.4 nM) and Kd is the apparent dissociation constant determined from the saturation experiments.
The substances studied were dissolved in the incubation buffer.
Binding of 5HT1A receptors

[2] = molecular target: T1, 5HT1A receptors; assay: Flat body posture (FBP), agonist (alone) and antagonist (vs 8-OH-DPAT); assay type: in vivo, rat (male Wistar); parameters: from tissue; host or cells: whole living male Wistar rats (endogenous receptor); conditions: for ED50: rat, sc
Experimental: as §1
(§2) The animals are isolated individually for the tests for hypothermia, corticosterone secretion and flat body posture, or combined in groups of three for the tailflick test.
(§3) The compounds to be studied were administered by the subcutaneous route (s.c.) 60 minutes before the beginning of the test, that is to say 30 minutes before the solvent (agonist responses) or the 8-OH-DPAT (antagonist responses).
(§4) In all of the tests the solvent is used in parallel as a control. The animals were left to rest in their cage during the period between the injections and the evaluation. For the agonist studies, the solvent was administered at 1 ml/kg s.c. 30 minutes before the beginning of the test. For the antagonist studies, doses of 8-OH-DPAT that induce sub-maximal responses were chosen, that is doses of 0.63, 0.16, 0.16 and 0.16 mg/kg s.c. for, respectively, the tail flick test, flat body posture test, corticosterone secretion test and hypothermia test.
(§5) The same animals were used to evaluate the influence of the compounds studied on FBP and on the determination of the plasma concentration of CS. All of the tests were carried out in the morning between 10.30 and 12.300 that is to say when the circadian levels of CS are lowest.
25 minutes after the treatment (that is to say 5 minutes before decapitation) the animals are observed in their cages and the presence or absence of FBP is noted.
(§6) The presence of FBP is defined by a characteristic posture of the animal. That posture is in the ventral decubitus position with the posterior limbs clearly extended. 5 minutes after the observation of FBP, the animals are decapitated and the blood from the trunk is collected in cooled tubes containing 50 μl of a 10% EDTA solution. After centrifugation at 4000 revs/min, the plasma is removed and stored at -30° C. until determination.
(§7) In general, after variance analysis, the results are subjected to the Dunett test. The results are taken as significant if p <0.05.
For the dose-response for the induction and inhibition of FBP, the ED50 values (doses at which 50% of the animals show a response) were calculated by the Litchfield and Wilcoxon method.
(§8) The doses of the compounds tested are all expressed in base terms. Unless specified otherwise, all of the compounds were dissolved in sterile water (to which if necessary a few drops of lactic acid were added) and administered at a volume of 1 ml/kg s.c.

[3] = molecular target: T1, 5HT1A receptors; assay: Corticosterone secretion (CS), agonist (alone) and antagonist (vs 8-OH-DPAT); assay type: in vivo, rat (male Wistar); parameters: from tissue; host or cells: whole living male Wistar rats (endogenous receptor); conditions: for CS secretion MED alone: agonist test, compound alone s.c., minimum effective dose vs control; for ED50: rat, sc, read-out: CS secretion ID50 (95% CL) + DPAT
Experimental: as §1, §2, §3, §4, §5, §6
The CS was determined by a radio-competitive determination for a plasma protein that binds the CS: transcortine. The latter is obtained from a monkey serum. The separation of the CS-transcortine complexes from the free CS was carried out by means of a solution of dextran and active carbon. The detection limit was 50 pg/tube. The intra- and inter-experiment variations in determination were 5 and 15% respectively [cf Rivet J. M. et al, Eur. J. Pharmacol., 183,634-635 (1990)].
The CS base rates in the plasma never being zero, the following formula was used to calculated the percentage inhibition of plasma CS induced by 8-OH-DPAT: [formula]
as §7, §8

[4] = molecular target: T1, 5HT1A receptors; assay: Body temperature / hypothermia, agonist (alone) and antagonist (vs 8-OH-DPAT); assay type: in vivo, rat (male Wistar); parameters: from tissue; host or cells: whole living male Wistar rats (endogenous receptor); conditions: for ED50: rat, sc, read-out: HYPOTHERMIA ID50 (95% CL) + DPAT
Experimental: as §1, §2, §3, §4
The rats are immobilised and a lubricated digital thermometer (Termistroprobe of Testotherm, Basle, Switzerland) is inserted into the rectum to a depth of 5 cm. 30 seconds after insertion, the temperature is read on a digital scale. The percentage inhibition is calculated using the formula given above.
as §7, §8

[5] = tested on: 5HT1A receptor; assay: Overall in vivo agonist/antagonist behaviour at 5HT1A receptors; parameters: species or system rat (male Wistar); conditions: Tables 1 and 2
[6] = molecular target: T1, 5HT1A receptors; assay: Spontaneous tail flick (STF) test, agonist (alone) and antagonist (vs 8-OH-DPAT); assay type: in vivo, rat (male Wistar); parameters: from tissue; host or cells: whole living male Wistar rats (endogenous receptor)
Experimental: as §1, §2, §3, §4
The tail flicks were determined on the animals in horizontal opaque plastics cylinders with the tail of the animals hanging freely on the edge of the laboratory work bench. After allowing 5 minutes for adaptation, the number of movements made in 5 minutes was recorded. An STF is defined as being an elevation of the tail to a level higher than that of the axis of the body [Millan M. J. et al., J. Pharmacol. Exp. Ther., 256, 973-982 (1990)].
as §7, §8

[7] = molecular target: T1, 5HT1A receptors; assay: Drug discrimination (DD) 8-OH-DPAT; assay type: in vivo, rat (male Wistar); parameters: from tissue; host or cells: whole living male Wistar rats (endogenous receptor); conditions: rat, sc
Experimental: as §1
Male rats are maintained at 85% of their normal body weight by means of food restriction. In soundproofed chambers the animals are trained to press a pedal to obtain food according to an FR10 procedure (Fixed Ratio 10; the food is supplied to the rat when it has pressed the lever 10 times).
Daily sessions of 15 minutes are preceded by an injection of solvent or of the training drug (0.31 mg/kg of 8-OH-DPAT, j.p.). The animal receives a pellet of food after pressing 10 times on the "solvent" or "drug" pedal according to the compound administered before the session.
After the learning period the animals are tested twice a week (Wednesday and Friday). On the other three days training sessions are carried out.
On the training days the rats are given either solvent or 8-OH-DPAT 15 minutes before being tested.
On the test days the rats receive the chemical substance 60 minutes before the session.
The capacity of the chemical substance administered to induce a response (pressing on the "solvent" or "drug" (8-OH-DPAT ) lever ) is recorded.
7 animals chosen at random are used for each substance and for each dose. During the test period, the lever on which the rat first presses 10 times is determined as the lever chosen--a food pellet is then delivered. That selected lever will be reinforced by the delivery of food up to the end of the test session. The percentage of animals selecting the "drug" lever at a particular dose is calculated. In addition, the total number of responses carried out on the two levers is expressed as a percentage of the number of responses carried out on the "solvent" lever obtained on the occasion of a preceding training session.
as §8

[8] = agonist test, compound alone s.c., read-out: FBP ED50 (95% CL) alone
[9] = antagonist test, s.c., vs 8-OH-DPAT 0.16 mg/kg s.c., read-out: FBP ID50 (95% CL) + DPAT
[10] = antagonist test, s.c., vs 8-OH-DPAT 0.16 mg/kg s.c.
[11] = agonist test, compound alone s.c., minimum effective dose vs control
[12] = rat hippocampus, [3H]-8-OH-DPAT 0.4 nM, 30 min at 25° C, read-out: AFFINITY (pKi) (converted)

ED50 [2, 8]	ED50 [2, 9]	CS secretion MED alone [3]	ED50 [3, 10]	HYPOTHERMIA MED alone [4, 11]	ED50 [4, 10]	Ki [1, 12]	Compound	Ki [1]	other results
						0.38 nM	c1cc2c(c(N3CCN(CCCCc4ccsc4)CC3)c1)OCCO2 [Example 4, 4-(Benzodioxan-5-yl)-1-[4-(thiophen-3-yl)butyl]piperazine]		
						1.02 nM	c1cc2c(c(N3CCN(CCc4ccc5ccccc5c4)CC3)c1)OCCO2 [Example 6, 4-(Benzodioxan-5-yl)-1-[2-(naphth-2-yl)ethyl]piperazine]		
> 2.5 mg/kg	< 2.5 mg/kg	> 2.5 mg/kg	2.5 mg/kg	> 2.5 mg/kg	0.63 mg/kg	1.7 nM	c1ccc(CCCN2CCN(c3cccc4c3OCCO4)CC2)cc1 [Example 12, 4-(Benzodioxan-5-yl)-1-(3-phenylpropyl)piperazine]		
> 2.5 mg/kg	< 2.5 mg/kg	> 2.5 mg/kg	2.5 mg/kg	> 10.0 mg/kg	0.32 mg/kg	1.29 nM	c1cc2c(c(N3CCN(CCc4cccc5ccccc45)CC3)c1)OCCO2 [Example 5, 4-(Benzodioxan-5-yl)-1-[2-(naphth-1-yl)ethyl]piperazine]		

Second part, the compound before the results:

Compound	ED50 [2, 8]	ED50 [2, 9]	CS secretion MED alone [3]	ED50 [3, 10]	HYPOTHERMIA MED alone [4, 11]	ED50 [4, 10]	Ki [1, 12]	Ki [1]	other results
c1csc(CCN2CCN(c3cccc4c3OCCO4)CC2)c1 [Example 13, 4-(Benzodioxan-5-yl)-1-[2-(thiophen-2-yl)ethyl]piperazine]								1.1 nM	
c1cc2c(c(N3CCN(CCc4cc5ccsc5s4)CC3)c1)OCCO2 [Example 8, 4-(Benzodioxan-5-yl)-1-[2-(thieno[2,3-b]thiophen-2-yl)ethyl]piperazine]								0.589 nM	
c1cc2c(c(N3CCN(CCc4ccsc4)CC3)c1)OCCO2 [Example 11, 4-(Benzodioxan-5-yl)-1-[2-(thiophen-3-yl)ethyl]piperazine]	> 2.5 mg/kg	< 2.5 mg/kg	> 2.5 mg/kg	2.5 mg/kg	> 2.5 mg/kg	0.16 mg/kg		1.2 nM	
O=C1CC2(CCCC2)CC(=O)N1CCCCN1CCN(c2ncccn2)CC1 [buspirone, reference compound]			2.5 mg/kg						behaviour at 5HT1A receptor (agonist/antagonist, in words) [5]: agonist behaviour; STFs MED alone [6, 11]: > 40.0 mg/kg; % MPA (% maximum possible antagonism), STFs ([6]; vs 8-OH-DPAT 0.63 mg/kg s.c.): 86%; ED50 ([2]; read-out: FBP ID50 (95% CL) + DPAT): > 10 mg/kg; % MPA (% maximum possible antagonism), FBP ([2]; vs 8-OH-DPAT 0.16 mg/kg s.c.): 0%; ED50 [3]: > 10 mg/kg; % MPA (% maximum possible antagonism), CS secretion ([3]; vs 8-OH-DPAT 0.16 mg/kg s.c.): 0%; H[…] alone [4, 11]: 2.5 mg/kg; ED50 [4]: > 10 mg/kg; % MPA (% maximum possible antagonism), HYPOTHERMIA ([4]; vs 8-OH-DPAT 0.16 mg/kg s.c.): 0%; ED50 ([7]; read-out: DD 8-OH-DPAT ED50 (95% CL) alone): 1.35 mg/kg; ED50 ([7]; read-out: DD 8-OH-DPAT ID50 (95% CL) + DPAT): > 2.5 mg/kg
c1cc2c(c(N3CCN(CC4Cc5ccsc5C4)CC3)c1)OCCO2 (racemic) [Example 3]	< 10 mg/kg	1.6 mg/kg	> 10.0 mg/kg	1.56 mg/kg	> 2.5 mg/kg	0.5 mg/kg	1.7 nM		ED50 ([6]; rat, sc, antagonist test, s.c., vs 8-OH-DPAT 0.63 mg/kg s.c., read-out: STFs ID50 (95% CL) + DPAT): < 0.16 mg/kg; % MPA (% maximum possible antagonism), FBP ([2]; vs 8-OH-DPAT 0.16 mg/kg s.c.): 100%; % MPA (% maximum possible antagonism), CS secretion ([3]; vs 8-OH-DPAT 0.16 mg/kg s.c.): 100%
c1cc2c(c(N3CCN(CCc4csc5ccccc45)CC3)c1)OCCO2 [Example 7, 4-(Benzodioxan-5-yl)-1-[2-(benzo[b]thiophen-3-yl)ethyl]piperazine]								0.724 nM	
